Experimental findings from article PMC4120117 (Bioorganic & medicinal chemistry letters, 2014) are described below.

This assay deals with three MycP1 variants. The assay is classed as biochemical, M. tuberculosis, M. thermoresistible, M. smegmatis.

Turning to HAlaValLysAlaAlaB(OH)2 [Compound 1], the “inhibition (in words)” value is reported as “poorer inhibition than compound 2”.
